Measured values taken from patent publication US7608289B2, “Food supplemented with a carnitine, suitable for stimulating the biosynthesis of polyunsaturated fatty acids from the saturated fatty acids contained in the food” (Sigma-Tau Industrie Farmaceutiche Riunite S.p.A., priority 1999, dated 2009).

Experiments:
[1] = n-3 and n-6 fatty acids in hepatic phospholipids of rabbits on the diets; type: in vivo, New Zealand male rabbits; settings: liver specimens, carnitines added to the milk diet
Excerpt: (§1) For these tests a batch of New Zealand male rabbits with a mean body weight of 3.7 kg was used, which, after a period of acclimatisation on a standard diet for eight days, were divided into different groups. One group received standard diet alone, while a second group received unskimmed milk mixed with pellets of the normal diet whose final composition was as follows: 4% fats, 24% proteins, 58% carbohydrates, 0.7% fibre, 10% water, 3% minerals and 1% vitamins. […]
(§2) After four weeks of treatment, blood samples were taken from the marginal vein of the ear and the plasma lipids obtained were subjected to measurement of the percentages of both saturated fatty acids and polyunsaturated fatty acids. The percentage amounts of unsaturated omega-3 fatty acids present in liver samples taken from the same animals were also measured. While total lipids were measured according to the method described by Schanfeld (Schanfeld G., J. Clin. Invest., 226:497, 1957) and Folch (Folch J., J. Biol. Chem., 226:497, 1957), the triglycerides and phospholipids were measured according to the method described by Terstra (Terstra A. H. M., Anal. Biochem., 11:149, 1981) and the n-3 and n-6 fatty acids according to the method described by Nestel (Nestel P. J., Ann. Rev. Nutr., 10:149, 1990) and Cevec (Cevec G., Biochemistry, 30:7:7186, 1991).

[2] = Plasma lipid test: polyunsaturated to saturated fatty acid ratio in rabbits on milk diet plus carnitines; type: in vivo, New Zealand male rabbits; settings: plasma lipids, carnitines given with milk diet, compared to controls
Excerpt: as §1, §2

| SMILES | increase in n-3 fatty acids / improvement of n-3 to n-6 ratio in liver (in words) [1] | change of the ratio of polyunsaturated to saturated fatty acids (in words) [2] |
| --- | --- | --- |
| CCC(=O)O[C@H](CC(=O)[O-])C[N+](C)(C)C [propionyl L-carnitine] | most active compound | particularly evident |
| CC(=O)O[C@H](CC(=O)[O-])C[N+](C)(C)C [acetyl L-carnitine] | – | particularly evident |
